Results on ten molecules are retold here after patent US20260174763A1, “PREPARATION METHOD AND USE OF A NOVEL TAXANE-BASED COMPOUND” (Jiangsu Jibeier Pharmaceutical Co., Ltd., priority 2023, published 2026).

The subject of assay [1] is human pancreatic cancer cell line SW1990. Put plainly: CTG proliferation inhibition, SW1990. The class given is cell-based. Conditions: 72 h incubation, read-out: IC50 (nM) of the test compounds for various tumor cell lines. The protocol:
(§1) Testing the inhibition effect of the compounds of Formula (I) and Formula II on the proliferation of various tumor cell lines by CTG method:
(§2) The CellTiter-Glo Luminescent Cell Viability Assay (CTG) method was used to test the inhibition effect of the compounds of Formula (I) and Formula II on the proliferation of various tumor cell lines, and IC50 value was calculated. The tumor cell lines included: human pancreatic cancer cell lines: SW1990, PANC-1, HPAF-II; human gastric cancer cell lines: NCI-N87, MGC-803; human esophageal cancer cell lines: KYSE-150, KYSE-410; human head-and-neck cancer cell lines: C666-1, Fadu; human breast cancer cell line: MDA-MB-231; human lung cancer cell line: A549; human adrenocortical carcinoma cell line: SW-13; human bladder cancer/urothelial carcinoma cell line: BIU-87, totally 13 tumor cell lines.
(§3) Experimental method: cells in logarithmic growth phase were obtained. The cell suspension was added to each well of a 96-well plate, placed in an incubator at 37° C. for overnight incubation. Complete mediums corresponding to each of the tumor cell lines were used to dilute the test compounds of […] and Formula II. The drugs were subjected to gradient dilution according to the following table. Culture medium containing the drug to be tested was added to the 96-well plate. Replicates were provided or each concentration in three wells; and a negative control well not containing the drug to be tested was provided. The 96-well plate was placed in incubator for incubation for 72 h and then added thereto a CTG reagent, with a blank control well provided. The substances in the wells were mixed evenly, and the cells were lysed and incubated at room temperature for 10 min. The […] signal value (Lum) was measured with a microplate reader.
(§4) Data processing and analysis: The software GraphPad Prism 8.0 was used to process the data graphically, calculate IC50, perform four-parameter non-linear regression analysis on the data, and map the corresponding dose-response curve. The equation for calculating cell viability is as below: […]

Assay [2] relates to human pancreatic cancer cell line PANC-1. As to the kind of experiment: CTG proliferation inhibition, PANC-1. In kind it is cell-based. To be noted: 72 h incubation, read-out: IC50 (nM) of the test compounds for various tumor cell lines. The protocol:
as §1, §2, §3, §4

The test system of assay [3] is human pancreatic cancer cell line HPAF-II. As to the kind of experiment: CTG proliferation inhibition, HPAF-II. Conditions: 72 h incubation, read-out: IC50 (nM) of the test compounds for various tumor cell lines. In kind it is cell-based. On the procedure: as §1, §2, §3, §4
Assay [4] concerns human gastric cancer cell line NCI-N87. As to the kind of experiment: CTG proliferation inhibition, NCI-N87. The class given is cell-based. To be noted: 72 h incubation, read-out: IC50 (nM) of the test compounds for various tumor cell lines. On the procedure:
as §1, §2, §3, §4

Assay [5] relates to human gastric cancer cell line MGC-803. Put plainly: CTG proliferation inhibition, MGC-803. The class given is cell-based. To be noted: 72 h incubation, read-out: IC50 (nM) of the test compounds for various tumor cell lines. On the procedure: as §1, §2, §3, §4
Assay [6] concerns human esophageal cancer cell line KYSE-150. Put plainly: CTG proliferation inhibition, KYSE-150. The class given is cell-based. Conditions: 72 h incubation, read-out: IC50 (nM) of the test compounds for various tumor cell lines. The protocol: as §1, §2, §3, §4
Assay [7] relates to human esophageal cancer cell line KYSE-410. As to the kind of experiment: CTG proliferation inhibition, KYSE-410. In kind it is cell-based. Conditions: 72 h incubation, read-out: IC50 (nM) of the test compounds for various tumor cell lines. On the procedure: as §1, §2, §3, §4
Assay [8] deals with human head-and-neck cancer cell line C666-1. As to the kind of experiment: CTG proliferation inhibition, C666-1. In kind it is cell-based. To be noted: 72 h incubation, read-out: IC50 (nM) of the test compounds for various tumor cell lines. The protocol:
as §1, §2, §3, §4

Assay [9] concerns human head-and-neck cancer cell line Fadu. As to the kind of experiment: CTG proliferation inhibition, Fadu. In kind it is cell-based. To be noted: 72 h incubation, read-out: IC50 (nM) of the test compounds for various tumor cell lines. On the procedure:
as §1, §2, §3, §4

Assay [10] relates to human breast cancer cell line MDA-MB-231. Put plainly: CTG proliferation inhibition, MDA-MB-231. The class given is cell-based. Conditions: 72 h incubation, read-out: IC50 (nM) of the test compounds for various tumor cell lines. The protocol:
as §1, §2, §3, §4

In assay [11] the test system is human lung cancer cell line A549. As to the kind of experiment: CTG proliferation inhibition, A549. To be noted: 72 h incubation, read-out: IC50 (nM) of the test compounds for various tumor cell lines. The class given is cell-based. On the procedure: as §1, §2, §3, §4
In assay [12] the test system is human adrenocortical carcinoma cell line SW-13. Put plainly: CTG proliferation inhibition, SW-13. In kind it is cell-based. To be noted: 72 h incubation, read-out: IC50 (nM) of the test compounds for various tumor cell lines. The protocol:
as §1, §2, §3, §4

Assay [13] has as its system human bladder cancer/urothelial carcinoma cell line BIU-87. Put plainly: CTG proliferation inhibition, BIU-87. The class given is cell-based. To be noted: 72 h incubation, read-out: IC50 (nM) of the test compounds for various tumor cell lines. On the procedure: as §1, §2, §3, §4
The next assay relates to tumor cell. Conditions: compared with paclitaxel; cited from earlier work.
For a further assay, the system named is advanced breast cancer. To be noted: clinical outcome; cited from earlier work.
The test system of assay [14] is advanced non-small cell lung cancer. Conditions: clinical outcome; cited from earlier work.
A further assay concerns advanced ovarian cancer. To be noted: clinical outcome; cited from earlier work.

SMILES strings stand for the structures.

Turning to `CC(=O)OC12COC1CC(O)C1(C)C(=O)C(OC(=O)Nc3ccc(C(C)O)cc3)C3=C(C)C(OC(=O)C(O)C(NC(=O)OC(C)(C)C)c4ccccc4)CC(O)(C(OC(=O)c4ccccc4)C21)C3(C)C` (centres unmarked) [Compound I-1], the IC50 (usually the point on the concentration scale where inhibition reaches its midpoint) in [1] was determined as 6.34 nM; in assay [2], 2.27 nM; in assay [3], 4.45 nM; in assay [4] it was 28.2 nM; in assay [5], 0.187 nM; in assay [6] it was 1.99 nM. Also, the IC50 turned out to be 1.26 nM in assay [7]; 16 nM in assay [8]; 2.64 nM in assay [9]; 5.46 nM in assay [10]; 41.9 nM in assay [11]; 1.57 nM in [12]. Besides, the IC50 in [13] stood at 12.1 nM.

As for `CC(=O)OC12COC1CC(O)C1(C)C(=O)C(OC(=O)Nc3ccc(C(C)O)cc3)C3=C(C)C(OC(=O)C(O)C(NC(=O)OC(C)(C)C)c4ccccc4)CC(O)(C(OC(=O)c4ccccc4)C21)C3(C)C` (centres unmarked) [Compound I-2], the IC50 was determined as 3.1 nM in assay [1]; 2.89 nM in assay [2]; 8.65 nM in [3]; 7.46 nM in [4]; 3.4 nM in [5]; 1.75 nM in [6]. The IC50 in assay [7] was 0.101 nM; in [8] it was 7.34 nM; in assay [9] it was 4.15 nM; in assay [10] it was 0.042 nM; in assay [11], 11.7 nM; in assay [12] it was 6.12 nM. Also, the IC50 in [13] worked out at 29.1 nM.

With `CC(=O)OC12COC1CC(O)C1(C)C(=O)C(OC(=O)Nc3ccc(C(C)O)cc3)C3=C(C)C(OC(=O)C(O)C(NC(=O)OC(C)(C)C)c4ccccc4)CC(O)(C(OC(=O)c4ccccc4)C21)C3(C)C` (centres unmarked) [Compound I-3], the IC50 in assay [1] is 0.916 nM; in [2], 0.814 nM; in [3], 2.22 nM; in [4], 8.3 nM; in assay [5], 2.08 nM; in assay [6], 0.376 nM. For the same molecule, the IC50 in assay [7] was determined as 0.084 nM; in assay [8], 10.5 nM; in assay [9] it was 0.657 nM; in [10], 6.61 nM; in assay [11], 25.3 nM; in assay [12] it was 2.69 nM. Besides, the IC50 in assay [13] was 0.319 nM.

For the molecule `CC(=O)OC12COC1CC(O)C1(C)C(=O)C(OC(=O)Nc3ccc(C(C)O)cc3)C3=C(C)C(OC(=O)C(O)C(NC(=O)OC(C)(C)C)c4ccccc4)CC(O)(C(OC(=O)c4ccccc4)C21)C3(C)C` (centres unmarked) [Compound I-4], the IC50 in assay [1] turned out to be 6.4 nM; in assay [2], 0.549 nM; in [3] it was 2.18 nM; in assay [4], 18.8 nM; in [5] it was 4.99 nM; in assay [6], 0.726 nM. Besides, the IC50 in [7] is 0.097 nM; in assay [8] it was 12.1 nM; in [9], 8.62 nM; in assay [10], 12.6 nM; in [11] it was 12.4 nM; in [12], 9.12 nM. Moreover, the IC50 in [13] came to 17.5 nM.

In the case of `CC(=O)OC12COC1CC(O)C1(C)C(=O)C(OC(=O)Nc3ccc(C(C)O)cc3)C3=C(C)C(OC(=O)C(O)C(NC(=O)OC(C)(C)C)c4ccccc4)CC(O)(C(OC(=O)c4ccccc4)C21)C3(C)C` (centres unmarked) [Compound I-5], the IC50 in [1] is 12.7 nM; in assay [2], 1.41 nM; in [3], 10.7 nM; in assay [4] it was 11.4 nM; in [5], 0.635 nM; in [6], 0.808 nM. Further, the IC50 in assay [7] amounted to 0.016 nM; in assay [8] it was 3.39 nM; in assay [9] it was 4.76 nM; in assay [10], 2.91 nM; in [11] it was 5.64 nM; in assay [12], 4.75 nM. Moreover, in assay [13], the IC50 turned out to be 17.7 nM.

In the case of `CC(=O)OC12COC1CC(O)C1(C)C(=O)C(OC(=O)Nc3ccc(C(C)O)cc3)C3=C(C)C(OC(=O)C(O)C(NC(=O)OC(C)(C)C)c4ccccc4)CC(O)(C(OC(=O)c4ccccc4)C21)C3(C)C` (centres unmarked) [Compound I-6], the IC50 in assay [1] came to 12.2 nM; in assay [2] it was 0.878 nM; in assay [3] it was 11 nM; in assay [4], 12.9 nM; in [5], 3.49 nM; in assay [6] it was 0.123 nM. The IC50 in assay [7] was 0.02 nM; in assay [8], 3.03 nM; in [9] it was 12.8 nM; in [10], 11.7 nM; in assay [11], 18.9 nM; in assay [12], 8.48 nM. Besides, the IC50 in [13] was found to be 30.1 nM.

On to `CC(=O)OC12COC1CC(O)C1(C)C(=O)C(OC(=O)Nc3ccc(C(C)O)cc3)C3=C(C)C(OC(=O)C(O)C(NC(=O)OC(C)(C)C)c4ccccc4)CC(O)(C(OC(=O)c4ccccc4)C21)C3(C)C` (centres unmarked) [Compound I-7], for which the IC50 in assay [1] stood at 6.73 nM; in [2], 0.888 nM; in assay [3], 3.11 nM; in assay [4], 10.9 nM; in [5] it was 4.93 nM; in assay [6], 0.972 nM. The IC50 in assay [7] is 0.1 nM; in assay [8], 9.19 nM; in assay [9], 6.47 nM; in [10], 13 nM; in [11] it was 60.2 nM; in assay [12] it was 7.36 nM. Also, in assay [13], the IC50 came to 10.2 nM.

Take `CC(=O)OC12COC1CC(O)C1(C)C(=O)C(OC(=O)Nc3ccc(C(C)O)cc3)C3=C(C)C(OC(=O)C(O)C(NC(=O)OC(C)(C)C)c4ccccc4)CC(O)(C(OC(=O)c4ccccc4)C21)C3(C)C` (centres unmarked) [Compound I-8]: the 50% inhibitory concentration (IC50) was determined as 14.2 nM in assay [1]; 0.007 nM in assay [2]; 9.05 nM in assay [3]; 14.7 nM in assay [4]; 0.844 nM in assay [5]; 1.7 nM in assay [6]. The IC50 in assay [7] worked out at 0.032 nM; in assay [8] it was 10.5 nM; in assay [9], 9.16 nM; in assay [10], 6.57 nM; in [11] it was 27.1 nM; in [12], 10.1 nM. Moreover, the IC50 in [13] was found to be 12.7 nM.

In the case of `CC(=O)OC12COC1CC(O)C1(C)C(=O)C(OC(=O)Nc3ccc(C(C)=O)cc3)C3=C(C)C(OC(=O)C(O)C(NC(=O)OC(C)(C)C)c4ccccc4)CC(O)(C(OC(=O)c4ccccc4)C21)C3(C)C` (centres unmarked) [II, reference compound], the IC50 stood at 15.5 nM in assay [1]; 3.35 nM in assay [2]; 12.6 nM in assay [3]; 20.8 nM in assay [4]; 5.34 nM in assay [5]; 1.9 nM in assay [6]. Moreover, the IC50 in [7] amounted to 0.113 nM; in assay [8], 12.8 nM; in assay [9], 16.7 nM; in [10], 20.9 nM; in assay [11], 60.5 nM; in [12], 12.5 nM. For the same molecule, in [13], the IC50 was determined as 30.5 nM.

Turning to `CC(=O)O[C@@]12CO[C@@H]1C[C@H](O)[C@@]1(C)C(=O)[C@H](O)C3=C(C)[C@@H](OC(=O)[C@H](O)[C@@H](NC(=O)OC(C)(C)C)c4ccccc4)C[C@@](O)([C@@H](OC(=O)c4ccccc4)[C@H]21)C3(C)C` [docetaxel, Docetaxel], the “ability to inhibit cell division relative to paclitaxel” value with tumor cell is “twice that of paclitaxel”. The “tumor cell proliferation inhibition rate relative to paclitaxel” value with tumor cell was 10 times. Also, the effective rate is listed as 60% in the assay on advanced breast cancer, 31% in assay [14] and 30% in the assay with advanced ovarian cancer.
